# Data reported in PubChem BioAssay (NCI).
#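 Compound exposure: 48 hours, 5 concentrations, 96-well plates. TGI: total growth inhibition.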
# Tests used:
# Experiment in all cases: inhibition of tumour cell growth, NCI panel, 48 h
# [1] = test system: SK-MEL-2 melanoma
# [2] = test system: NCI-H226 lung
# [3] = test system: LOX IMVI melanoma
# [4] = test system: U251 CNS
# [5] = test system: DLD-1 colon
# [6] = test system: M19-MEL melanoma
# [7] = test system: UO-31 renal
# [8] = test system: SK-OV-3 ovarian
# [9] = test system: OVCAR-4 ovarian
# [10] = test system: ACHN renal
# [11] = test system: XF 498 CNS
# [12] = test system: NCI-H23 lung
# [13] = test system: SNB-75 CNS
# [14] = test system: SF-539 CNS
# [15] = test system: M14 melanoma
# [16] = test system: HCT-15 colon
# [17] = test system: SNB-19 CNS
# [18] = test system: HOP-62 NSCLC
# [19] = test system: UACC-257 melanoma
# [20] = test system: CCRF-CEM leukemia
# [21] = test system: MOLT-4 leukemia
# [22] = test system: DMS 273 small cell lung
# [23] = test system: HL-60(TB) leukemia
# [24] = test system: LXFL 529 NSCLC
# [25] = test system: K-562 leukemia
# [26] = test system: IGROV1 ovarian
# [27] = test system: NCI-H460 lung
# [28] = test system: KM20L2 colon
# [29] = test system: HCC-2998 colon
# [30] = test system: MALME-3M melanoma
# [31] = test system: OVCAR-8 ovarian
# [32] = test system: EKVX NSCLC
# [33] = test system: SNB-78 CNS
# [34] = test system: HOP-92 NSCLC
# [35] = test system: SK-MEL-5 melanoma
# [36] = test system: HCT-116 colon
# [37] = test system: SK-MEL-28 melanoma
# [38] = test system: SF-268 CNS
# [39] = test system: RPMI-8226 leukemia
# [40] = test system: HT29 colon
# [41] = test system: A498 renal
# [42] = test system: SN12C renal
# [43] = test system: DMS 114 small cell lung
# [44] = test system: A549 NSCLC
# [45] = test system: TK-10 renal
# [46] = test system: COLO 205 colon
# [47] = test system: 786-0 renal
# [48] = test system: RXF 393 renal
# [49] = test system: OVCAR-5 ovarian
# [50] = test system: OVCAR-3 ovarian
# [51] = test system: SR leukemia
# [52] = test system: NCI-H522 lung
# [53] = test system: UACC-62 melanoma
# [54] = test system: CAKI-1 renal
# [55] = test system: HOP-18 NSCLC
# [56] = test system: SF-295 CNS
# [57] = test system: SW-620 colon
# [58] = test system: RXF-631 renal
# [59] = test system: KM12 colon
# [60] = test system: MCF7 breast
# [61] = test system: T-47D breast
# [62] = test system: MDA-N
# [63] = test system: BT-549 breast
# [64] = test system: PC-3 prostate
# [65] = test system: DU-145 prostate
# [66] = test system: HS 578T breast
# [67] = test system: MDA-MB-435
# [68] = test system: MDA-MB-231 breast
# [69] = test system: NCI/ADR-RES ovarian
smiles,measurement,setting,value
Cc1ccc(S(=O)(=O)NC(=O)C2(Br)S(=O)(=O)OCCOS2(=O)=O)cc1,TGI,[1],> 100 µM
same,TGI,[2],> 100 µM
same,TGI,[3],> 100 µM
same,TGI,[4],> 100 µM
same,TGI,[5],> 100 µM
same,TGI,[6],> 100 µM
same,TGI,[7],> 100 µM
same,TGI,[8],> 100 µM
same,TGI,[9],> 100 µM
same,TGI,[10],> 100 µM
same,TGI,[11],> 100 µM
same,TGI,[12],> 100 µM
same,TGI,[13],> 100 µM
same,TGI,[14],> 100 µM
same,TGI,[15],> 100 µM
same,TGI,[16],> 100 µM
same,TGI,[17],> 100 µM
same,TGI,[18],> 100 µM
same,TGI,[19],> 100 µM
same,TGI,[20],> 100 µM
same,TGI,[21],> 100 µM
same,TGI,[22],> 100 µM
same,TGI,[23],> 100 µM
same,TGI,[24],> 100 µM
same,TGI,[25],> 100 µM
same,TGI,[26],> 100 µM
same,TGI,[27],> 100 µM
same,TGI,[28],> 100 µM
same,TGI,[29],> 100 µM
same,TGI,[30],> 100 µM
same,TGI,[31],> 100 µM
same,TGI,[32],> 100 µM
same,TGI,[33],> 100 µM
same,TGI,[34],> 100 µM
same,TGI,[35],> 100 µM
same,TGI,[36],> 100 µM
same,TGI,[37],> 100 µM
same,TGI,[38],> 100 µM
same,TGI,[39],> 100 µM
same,TGI,[40],> 100 µM
same,TGI,[41],> 100 µM
same,TGI,[42],> 100 µM
same,TGI,[43],> 100 µM
same,TGI,[44],> 100 µM
same,TGI,[45],> 100 µM
same,TGI,[46],> 100 µM
same,TGI,[47],> 100 µM
same,TGI,[48],> 100 µM
same,TGI,[49],> 100 µM
same,TGI,[50],> 100 µM
same,TGI,[51],> 100 µM
same,TGI,[52],> 100 µM
same,TGI,[53],> 100 µM
CCOc1ccc(C2=C(Cl)c3cc(OC)c(OC)cc3C2Cl)cc1 (configuration not stated),TGI,[1],70.6 µM
same,TGI,[2],> 100 µM
same,TGI,[54],> 100 µM
same,TGI,[3],45.1 µM
same,TGI,[4],39.8 µM
same,TGI,[5],> 100 µM
same,TGI,[6],> 100 µM
same,TGI,[7],> 100 µM
same,TGI,[8],> 100 µM
same,TGI,[10],> 100 µM
same,TGI,[11],42.9 µM
same,TGI,[12],> 100 µM
same,TGI,[13],> 100 µM
same,TGI,[55],> 100 µM
same,TGI,[14],> 100 µM
same,TGI,[15],> 100 µM
same,TGI,[16],> 100 µM
same,TGI,[17],> 100 µM
same,TGI,[20],> 100 µM
same,TGI,[21],78.4 µM
same,TGI,[56],> 100 µM
same,TGI,[22],> 100 µM
same,TGI,[23],49.4 µM
same,TGI,[24],> 100 µM
same,TGI,[26],> 100 µM
same,TGI,[27],> 100 µM
same,TGI,[28],> 100 µM
same,TGI,[30],> 100 µM
same,TGI,[31],> 100 µM
same,TGI,[32],> 100 µM
same,TGI,[33],> 100 µM
same,TGI,[34],86.5 µM
same,TGI,[35],39.3 µM
same,TGI,[37],> 100 µM
same,TGI,[38],> 100 µM
same,TGI,[39],73 µM
same,TGI,[40],> 100 µM
same,TGI,[41],90.4 µM
same,TGI,[42],> 100 µM
same,TGI,[43],56.2 µM
same,TGI,[45],> 100 µM
same,TGI,[46],> 100 µM
same,TGI,[50],> 100 µM
same,TGI,[52],49 µM
same,TGI,[57],> 100 µM
same,TGI,[53],> 100 µM
c1ccc(-c2nc3sccn3n2)cc1,TGI,[4],> 100 µM
same,TGI,[6],> 100 µM
same,TGI,[7],> 100 µM
same,TGI,[8],> 100 µM
same,TGI,[10],> 100 µM
same,TGI,[12],> 100 µM
same,TGI,[15],> 100 µM
same,TGI,[17],> 100 µM
same,TGI,[18],> 100 µM
same,TGI,[19],> 100 µM
same,TGI,[20],> 100 µM
same,TGI,[21],> 100 µM
same,TGI,[56],> 100 µM
same,TGI,[22],> 100 µM
same,TGI,[23],> 100 µM
same,TGI,[25],> 100 µM
same,TGI,[26],> 100 µM
same,TGI,[27],> 100 µM
same,TGI,[58],> 100 µM
same,TGI,[31],> 100 µM
same,TGI,[32],> 100 µM
same,TGI,[34],> 100 µM
same,TGI,[36],> 100 µM
same,TGI,[37],> 100 µM
same,TGI,[38],> 100 µM
same,TGI,[40],> 100 µM
same,TGI,[41],> 100 µM
same,TGI,[59],> 100 µM
same,TGI,[43],> 100 µM
same,TGI,[44],> 100 µM
same,TGI,[45],> 100 µM
same,TGI,[48],> 100 µM
same,TGI,[49],> 100 µM
same,TGI,[51],> 100 µM
same,TGI,[52],> 100 µM
same,TGI,[53],> 100 µM
C[N+](C)(C)CCC(=O)N1C/C(=C\c2ccccc2)C(=O)/C(=C/c2ccccc2)C1,TGI,[1],30.1 µM
same,TGI,[2],20 µM
same,TGI,[54],18.2 µM
same,TGI,[3],3.46 µM
same,TGI,[4],6 µM
same,TGI,[5],5.78 µM
same,TGI,[60],3.31 µM
same,TGI,[6],15.5 µM
same,TGI,[7],33 µM
same,TGI,[8],46.8 µM
same,TGI,[9],9.79 µM
same,TGI,[10],15.3 µM
same,TGI,[11],27.6 µM
same,TGI,[61],4.41 µM
same,TGI,[12],23.3 µM
same,TGI,[13],24.3 µM
same,TGI,[55],26.7 µM
same,TGI,[14],11.8 µM
same,TGI,[15],7.54 µM
same,TGI,[62],3.36 µM
same,TGI,[16],6.49 µM
same,TGI,[17],12.2 µM
same,TGI,[18],33.6 µM
same,TGI,[19],28.2 µM
same,TGI,[20],7.05 µM
same,TGI,[63],4.95 µM
same,TGI,[21],7.31 µM
same,TGI,[56],11.9 µM
same,TGI,[22],5.33 µM
same,TGI,[23],9.44 µM
same,TGI,[64],6.97 µM
same,TGI,[24],13.5 µM
same,TGI,[65],30.6 µM
same,TGI,[25],6.3 µM
same,TGI,[26],13.4 µM
same,TGI,[27],22.4 µM
same,TGI,[28],22 µM
same,TGI,[66],21.2 µM
same,TGI,[29],13.2 µM
same,TGI,[30],30.4 µM
same,TGI,[31],8.44 µM
same,TGI,[32],35.9 µM
same,TGI,[33],22.9 µM
same,TGI,[34],38.7 µM
same,TGI,[35],22.6 µM
same,TGI,[36],2.98 µM
same,TGI,[37],15.4 µM
same,TGI,[38],13 µM
same,TGI,[39],2.3 µM
same,TGI,[40],7.93 µM
same,TGI,[41],35.3 µM
same,TGI,[59],3.11 µM
same,TGI,[42],4.59 µM
same,TGI,[43],> 22.3 µM
same,TGI,[44],32.1 µM
same,TGI,[45],23.6 µM
same,TGI,[46],13.4 µM
same,TGI,[47],5.46 µM
same,TGI,[67],5.49 µM
same,TGI,[48],28.3 µM
same,TGI,[49],30.6 µM
same,TGI,[50],9.31 µM
same,TGI,[68],9.82 µM
same,TGI,[69],3.3 µM
same,TGI,[52],5.42 µM
same,TGI,[57],2.68 µM
same,TGI,[53],10.3 µM
